Assays:
Assay in all cases: Kinase selectivity, % remaining activity
Type in all cases: biochemical
Details in all cases: 10 μM compound, 10 μM ATP, duplicate
ABL2/ARG = ABL2/ARG (Homo sapiens, UniProt P42684)
Procedure: (§1) A two-tier strategy to determine the selectivity of compound A was applied: first, the compound was tested at a single concentration (in duplicate) to determine the %-remaining activity of the target kinase. Subsequently, the IC50 of compound A and comparative compounds for casein kinase 1 delta were determined.
(§2) Compounds were tested in single dose duplicate mode at a concentration of 10 μM (in DMSO) and reactions were carried out at 10 μM ATP, Table 3 reports the % of remaining activity (relative to DMSO).

ALK5/TGFBR1 = target: T1, ALK5/TGFBR1 (Homo sapiens, UniProt P36897)
T1 sequence (P36897 34-503): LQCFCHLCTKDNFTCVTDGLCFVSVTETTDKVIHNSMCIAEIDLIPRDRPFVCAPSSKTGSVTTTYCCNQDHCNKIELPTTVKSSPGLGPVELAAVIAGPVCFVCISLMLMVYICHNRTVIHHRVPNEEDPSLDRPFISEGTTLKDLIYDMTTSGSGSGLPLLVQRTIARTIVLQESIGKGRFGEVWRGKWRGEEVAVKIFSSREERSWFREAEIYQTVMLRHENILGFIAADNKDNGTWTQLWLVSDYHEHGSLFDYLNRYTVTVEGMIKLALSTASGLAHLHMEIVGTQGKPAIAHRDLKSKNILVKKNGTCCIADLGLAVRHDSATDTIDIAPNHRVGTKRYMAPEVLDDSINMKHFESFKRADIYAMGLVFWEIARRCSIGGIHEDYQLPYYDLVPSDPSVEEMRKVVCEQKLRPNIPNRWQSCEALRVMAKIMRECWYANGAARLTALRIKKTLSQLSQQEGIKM
Procedure: as §1, §2

CK1e = CK1e (Homo sapiens, UniProt P49674)
Procedure: as §1, §2

CK1g1 = CK1g1 (Homo sapiens, UniProt Q9HCP0)
Procedure: as §1, §2

CK1g2 = CK1g2 (Homo sapiens, UniProt P78368)
Procedure: as §1, §2

CLK2 = CLK2 (Homo sapiens, UniProt P49760)
Procedure: as §1, §2

DAPK1 = DAPK1 (Homo sapiens, UniProt P53355)
Procedure: as §1, §2

EGFR = EGFR (Homo sapiens, UniProt P00533)
Procedure: as §1, §2

EPHA2 = EPHA2 (Homo sapiens, UniProt P29317)
Procedure: as §1, §2

FGFR1 = FGFR1 (Homo sapiens, UniProt P11362)
Procedure: as §1, §2

GSK3B = GSK3B (Homo sapiens, UniProt P49841)
Procedure: as §1, §2

LCK = LCK (Homo sapiens, UniProt P06239)
Procedure: as §1, §2

MSK1/RPS6KA5 = MSK1/RPS6KA5 (Homo sapiens, UniProt O75582)
Procedure: as §1, §2

PIM3 = PIM3 (Homo sapiens, UniProt Q86V86)
Procedure: as §1, §2

RIPK2 = RIPK2 (Homo sapiens, UniProt O43353)
Procedure: as §1, §2

ROCK1 = ROCK1 (Homo sapiens, UniProt Q13464)
Procedure: as §1, §2

TNIK = TNIK (Homo sapiens, UniProt Q9UKE5)
Procedure: as §1, §2

YES/YES1 = YES/YES1 (Homo sapiens, UniProt P07947)
Procedure: as §1, §2

c-Src = c-Src (Homo sapiens, UniProt P12931)
Procedure: as §1, §2

[1] = read-out: % of remaining activity (relative to DMSO)

Sequence of EPHA2 (P29317 24-976): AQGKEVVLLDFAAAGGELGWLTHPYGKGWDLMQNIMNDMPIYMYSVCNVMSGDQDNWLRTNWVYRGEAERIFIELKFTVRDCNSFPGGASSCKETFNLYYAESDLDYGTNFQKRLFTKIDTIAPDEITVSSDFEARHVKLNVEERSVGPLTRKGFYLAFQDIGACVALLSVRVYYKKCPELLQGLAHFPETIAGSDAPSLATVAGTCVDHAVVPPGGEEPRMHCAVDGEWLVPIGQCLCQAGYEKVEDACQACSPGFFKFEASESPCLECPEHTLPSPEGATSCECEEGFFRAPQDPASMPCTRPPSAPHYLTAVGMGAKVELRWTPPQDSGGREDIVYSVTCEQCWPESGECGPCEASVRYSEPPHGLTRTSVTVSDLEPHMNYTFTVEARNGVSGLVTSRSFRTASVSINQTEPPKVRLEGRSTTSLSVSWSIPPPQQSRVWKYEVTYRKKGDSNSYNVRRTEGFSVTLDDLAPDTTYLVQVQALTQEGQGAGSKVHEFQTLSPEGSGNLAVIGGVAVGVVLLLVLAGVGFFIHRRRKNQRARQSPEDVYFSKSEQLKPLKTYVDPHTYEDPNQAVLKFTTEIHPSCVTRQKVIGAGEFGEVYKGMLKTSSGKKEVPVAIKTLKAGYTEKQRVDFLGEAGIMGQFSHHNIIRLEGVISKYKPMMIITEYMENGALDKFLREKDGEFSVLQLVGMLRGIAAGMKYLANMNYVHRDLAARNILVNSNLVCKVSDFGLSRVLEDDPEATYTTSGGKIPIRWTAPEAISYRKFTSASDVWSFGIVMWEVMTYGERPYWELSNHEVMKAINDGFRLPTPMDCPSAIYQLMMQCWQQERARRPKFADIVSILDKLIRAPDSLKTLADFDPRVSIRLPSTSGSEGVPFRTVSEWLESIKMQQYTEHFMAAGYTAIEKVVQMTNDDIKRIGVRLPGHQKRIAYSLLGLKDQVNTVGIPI
Sequence of CK1e (P49674 whole entry): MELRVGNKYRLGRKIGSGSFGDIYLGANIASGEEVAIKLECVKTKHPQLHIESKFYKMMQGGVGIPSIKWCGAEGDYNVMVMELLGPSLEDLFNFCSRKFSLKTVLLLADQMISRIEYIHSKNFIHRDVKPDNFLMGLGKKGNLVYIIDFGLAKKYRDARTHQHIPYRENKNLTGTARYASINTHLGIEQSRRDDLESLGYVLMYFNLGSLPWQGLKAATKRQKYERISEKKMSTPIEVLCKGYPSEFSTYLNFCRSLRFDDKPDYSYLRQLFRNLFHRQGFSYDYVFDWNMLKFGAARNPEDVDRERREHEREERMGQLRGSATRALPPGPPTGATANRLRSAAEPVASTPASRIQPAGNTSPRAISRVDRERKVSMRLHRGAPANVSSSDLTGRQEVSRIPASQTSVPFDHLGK
Sequence of CK1g1 (Q9HCP0 whole entry): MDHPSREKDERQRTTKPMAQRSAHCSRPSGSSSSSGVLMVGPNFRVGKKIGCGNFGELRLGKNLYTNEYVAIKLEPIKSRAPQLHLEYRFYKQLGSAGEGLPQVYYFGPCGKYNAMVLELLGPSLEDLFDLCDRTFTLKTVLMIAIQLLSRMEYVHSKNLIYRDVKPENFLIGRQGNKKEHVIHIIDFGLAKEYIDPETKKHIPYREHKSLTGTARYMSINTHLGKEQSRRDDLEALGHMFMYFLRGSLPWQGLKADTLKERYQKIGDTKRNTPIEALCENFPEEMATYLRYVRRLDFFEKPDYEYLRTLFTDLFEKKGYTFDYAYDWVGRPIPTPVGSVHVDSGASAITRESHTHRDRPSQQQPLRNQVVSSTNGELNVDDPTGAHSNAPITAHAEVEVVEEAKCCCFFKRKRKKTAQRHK
Sequence of YES/YES1 (P07947 whole entry): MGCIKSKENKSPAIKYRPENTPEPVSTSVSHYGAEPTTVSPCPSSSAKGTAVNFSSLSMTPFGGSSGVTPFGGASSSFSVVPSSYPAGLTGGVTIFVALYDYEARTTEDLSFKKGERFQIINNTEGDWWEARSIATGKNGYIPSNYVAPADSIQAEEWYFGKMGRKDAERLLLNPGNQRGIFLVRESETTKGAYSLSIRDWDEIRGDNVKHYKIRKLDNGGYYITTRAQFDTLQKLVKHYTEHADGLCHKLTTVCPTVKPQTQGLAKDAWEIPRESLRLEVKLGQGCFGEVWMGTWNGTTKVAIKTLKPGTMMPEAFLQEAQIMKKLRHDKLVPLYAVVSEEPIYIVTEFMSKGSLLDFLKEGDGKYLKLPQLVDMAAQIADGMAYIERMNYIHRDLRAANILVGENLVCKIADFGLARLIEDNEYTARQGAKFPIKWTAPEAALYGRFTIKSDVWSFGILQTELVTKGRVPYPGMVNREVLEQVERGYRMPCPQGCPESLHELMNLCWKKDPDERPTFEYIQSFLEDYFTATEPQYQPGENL
Sequence of RIPK2 (O43353 whole entry): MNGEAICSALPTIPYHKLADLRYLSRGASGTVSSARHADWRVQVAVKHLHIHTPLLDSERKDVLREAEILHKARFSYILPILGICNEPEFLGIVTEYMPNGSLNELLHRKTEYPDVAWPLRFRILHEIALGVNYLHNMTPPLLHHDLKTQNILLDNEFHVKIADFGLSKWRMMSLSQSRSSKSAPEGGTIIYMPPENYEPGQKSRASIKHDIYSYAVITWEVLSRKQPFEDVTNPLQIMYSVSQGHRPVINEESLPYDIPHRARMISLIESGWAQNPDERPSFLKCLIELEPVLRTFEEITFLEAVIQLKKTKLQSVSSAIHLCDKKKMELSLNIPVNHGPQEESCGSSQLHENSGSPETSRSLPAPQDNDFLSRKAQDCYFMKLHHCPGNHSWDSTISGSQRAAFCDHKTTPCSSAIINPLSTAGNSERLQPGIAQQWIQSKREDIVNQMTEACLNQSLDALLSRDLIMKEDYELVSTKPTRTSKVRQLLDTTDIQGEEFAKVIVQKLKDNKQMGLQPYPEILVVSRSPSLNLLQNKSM
Sequence of CK1g2 (P78368 whole entry, species assumed): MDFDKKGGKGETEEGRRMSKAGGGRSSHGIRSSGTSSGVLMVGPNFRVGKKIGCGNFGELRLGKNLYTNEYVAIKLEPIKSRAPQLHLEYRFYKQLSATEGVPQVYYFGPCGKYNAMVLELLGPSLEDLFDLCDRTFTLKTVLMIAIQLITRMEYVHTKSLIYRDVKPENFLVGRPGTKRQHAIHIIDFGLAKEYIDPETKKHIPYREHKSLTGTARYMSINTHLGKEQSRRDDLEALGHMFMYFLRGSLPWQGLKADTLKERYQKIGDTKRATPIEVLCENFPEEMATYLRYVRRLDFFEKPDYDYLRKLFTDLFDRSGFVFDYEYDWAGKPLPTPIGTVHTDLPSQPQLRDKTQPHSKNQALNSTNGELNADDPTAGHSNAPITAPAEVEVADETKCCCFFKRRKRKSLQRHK
Sequence of FGFR1 (P11362 22-822): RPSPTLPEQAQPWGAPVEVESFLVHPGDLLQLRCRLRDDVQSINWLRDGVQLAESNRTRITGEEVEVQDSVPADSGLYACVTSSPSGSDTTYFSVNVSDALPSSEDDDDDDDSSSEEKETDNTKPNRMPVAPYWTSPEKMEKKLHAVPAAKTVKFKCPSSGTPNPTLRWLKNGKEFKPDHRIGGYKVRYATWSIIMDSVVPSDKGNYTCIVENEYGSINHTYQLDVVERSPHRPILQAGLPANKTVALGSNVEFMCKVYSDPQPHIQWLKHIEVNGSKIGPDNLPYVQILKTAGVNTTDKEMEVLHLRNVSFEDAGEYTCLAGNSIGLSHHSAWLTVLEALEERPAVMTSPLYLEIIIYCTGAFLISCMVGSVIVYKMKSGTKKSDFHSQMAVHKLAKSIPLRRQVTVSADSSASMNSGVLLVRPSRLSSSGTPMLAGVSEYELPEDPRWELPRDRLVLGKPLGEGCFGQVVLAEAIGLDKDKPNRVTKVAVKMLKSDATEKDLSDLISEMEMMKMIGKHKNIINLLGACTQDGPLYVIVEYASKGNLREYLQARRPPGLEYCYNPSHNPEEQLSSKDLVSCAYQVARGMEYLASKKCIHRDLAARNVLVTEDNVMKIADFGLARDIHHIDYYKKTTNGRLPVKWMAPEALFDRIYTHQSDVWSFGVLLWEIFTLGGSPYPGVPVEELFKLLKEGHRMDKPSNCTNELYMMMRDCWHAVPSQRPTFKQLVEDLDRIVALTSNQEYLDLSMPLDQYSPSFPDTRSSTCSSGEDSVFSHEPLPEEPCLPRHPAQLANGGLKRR
Sequence of c-Src (P12931 whole entry, species assumed): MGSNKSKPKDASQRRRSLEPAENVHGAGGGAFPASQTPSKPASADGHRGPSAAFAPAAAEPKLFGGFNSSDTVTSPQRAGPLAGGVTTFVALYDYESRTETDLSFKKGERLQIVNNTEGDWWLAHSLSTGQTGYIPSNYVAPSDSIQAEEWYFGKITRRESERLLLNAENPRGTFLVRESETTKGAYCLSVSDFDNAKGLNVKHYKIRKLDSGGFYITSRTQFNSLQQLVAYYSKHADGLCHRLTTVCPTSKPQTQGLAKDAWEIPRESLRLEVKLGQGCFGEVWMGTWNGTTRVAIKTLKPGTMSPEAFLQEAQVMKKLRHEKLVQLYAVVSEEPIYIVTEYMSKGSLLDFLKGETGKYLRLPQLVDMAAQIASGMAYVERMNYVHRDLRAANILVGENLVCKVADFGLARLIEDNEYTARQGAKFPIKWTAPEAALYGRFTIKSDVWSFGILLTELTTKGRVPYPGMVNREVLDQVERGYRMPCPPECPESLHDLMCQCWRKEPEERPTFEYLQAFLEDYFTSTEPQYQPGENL

% of remaining activity (relative to DMSO) (ABL2/ARG; listed as Cmp 315): 89.19%
remaining activity at 10 µM (ABL2/ARG; [1]): 83.4%
% of remaining activity (relative to DMSO) (ALK5/TGFBR1; listed as Cmp 315): 110.31%
remaining activity at 10 µM (ALK5/TGFBR1; [1]): 107%
% of remaining activity (relative to DMSO) (CK1e; listed as Cmp 315): 6.51%
remaining activity at 10 µM (CK1e; [1]): 5.45%
% of remaining activity (relative to DMSO) (CK1g1; listed as Cmp 315): 73.02%
remaining activity at 10 µM (CK1g1; [1]): 71.9%
% of remaining activity (relative to DMSO) (CK1g2; listed as Cmp 315): 50.52%
remaining activity at 10 µM (CK1g2; [1]): 47.3%
% of remaining activity (relative to DMSO) (CLK2; listed as Cmp 315): 48.99%
remaining activity at 10 µM (CLK2; [1]): 50.6%
% of remaining activity (relative to DMSO) (DAPK1; listed as Cmp 315): 90.84%
remaining activity at 10 µM (DAPK1; [1]): 96%
% of remaining activity (relative to DMSO) (EGFR; listed as Cmp 315): 117.99%
remaining activity at 10 µM (EGFR; [1]): 111%
% of remaining activity (relative to DMSO) (EPHA2; listed as Cmp 315): 96.60%
remaining activity at 10 µM (EPHA2; [1]): 99%
% of remaining activity (relative to DMSO) (FGFR1; listed as Cmp 315): 101.65%
remaining activity at 10 µM (FGFR1; [1]): 102%
% of remaining activity (relative to DMSO) (GSK3B; listed as Cmp 315): 115.26%
remaining activity at 10 µM (GSK3B; [1]): 120%
% of remaining activity (relative to DMSO) (LCK; listed as Cmp 315): 97.71%
remaining activity at 10 µM (LCK; [1]): 94.9%
% of remaining activity (relative to DMSO) (MSK1/RPS6KA5; listed as Cmp 315): 118.15%
remaining activity at 10 µM (MSK1/RPS6KA5; [1]): 117%
% of remaining activity (relative to DMSO) (PIM3; listed as Cmp 315): 57.54%
remaining activity at 10 µM (PIM3; [1]): 60.6%
% of remaining activity (relative to DMSO) (RIPK2; listed as Cmp 315): 90.19%
remaining activity at 10 µM (RIPK2; [1]): 93.4%
% of remaining activity (relative to DMSO) (ROCK1; listed as Cmp 315): 90.20%
remaining activity at 10 µM (ROCK1; [1]): 93.4%
% of remaining activity (relative to DMSO) (TNIK; listed as Cmp 315): 101.11%
remaining activity at 10 µM (TNIK; [1]): 101%
% of remaining activity (relative to DMSO) (YES/YES1; listed as Cmp 315): 99.08%
remaining activity at 10 µM (YES/YES1; [1]): 99%
% of remaining activity (relative to DMSO) (c-Src; listed as Cmp 315): 101.24%
remaining activity at 10 µM (c-Src; [1]): 104%
SMILES: COc1ccc(C=C2N=C(c3cccs3)OC2=O)cc1 [Comparative Compound 315, 4-((4-methoxyphenyl)methylene)-2-(2-thienyl)-5(4H)-oxalone]
